Results reported in patent publication US20160175401A1, “COMPOITIONS AND METHODS FOR MODULATING THERMOGENESIS USING PTH-RELATED AND EGF-RELATED COMPOUNDS” (DANA-FARBER CANCER INSTITUTE INC., priority 2013, published 2016).

Tests used:
Format in all cases: cell-based, mouse
primary white adipocytes = experiment: Thermogenic gene expression (qRT-PCR) in primary white adipocytes; details: for thermogenic effects (thermogenic gene expression): 1 μg/ml, 4 hours, primary white adipocytes (FIG. 8A-8C)
Procedure: Inguinal SV fractions were obtained from 30-35 days-old male mice by the following procedure. Inguinal fat tissue was dissected, washed with PBS, minced and digested for 45 min at 37° C. in PBS containing 10 mM CaCl, 2.4 U/mL dispase II (Roche), and 1.5 U/mL collagenase D (Roche). Digested tissue was filtered through a 100-μm cell strainer and centrifuged at 600 g for 5 min to pellet the SV cells which were then resuspended in SV culture medium (DMEM/F12 [1:1; Invitrogen] plus glutamax, pen/strep, and 10% FBS), filtered through a 40-μm cell strainer, centrifugation as above, resuspended in SV culture medium and plated. SV cells were grown to confluency for adipocyte differentiation which was induced by the adipogenic cocktail containing 1 μM dexamethasone, 5 μg/mL insulin, […] isobutylmethylxanthine (DMI), and 1 μM rosiglitazone in SV culture medium. 2 days after induction, cells were maintained in SV culture medium containing 5 μg/mL insulin and 1 μM rosiglitazone. Starting at day 6, cells were maintained in SV culture medium only and treated with various molecules for […] and harvested at day 8.
LLC cells were maintained in DMEM (Invitrogen) with 10% FBS and pen/strep. For conditioned media collection, cells were plated at ⅓ confluency. The following day, medium is changed to FreeStyle expression medium (Invitrogen) which was collected 24 hours later. For concentration of expression medium, LLC conditioned media was filtered using a 3 kilodalton (Kd) cut-off filter (Millipore). Adipocytes were maintained in SV culture media (DMEM/F12 [1:1; Invitrogen] plus glutamax, pen/strep, and 10% FBS) and conditioned media treatment experiments were performed 7 days post-differentiation. When adipocytes were treated with conditioned media for 24 hours, the treatment media were composed of 50% SV culturing medium and 50% LLC conditioned media. When conditioned medium was filtered and concentrated, adipocytes were exposed to 90% SV culturing medium and 10% concentrated LLC conditioned media.
(§1) RNA was extracted from cultured cells or frozen tissue samples using TRIzol (Invitrogen), purified with Qiagen RNAeasy minicolums and reverse transcribed using High Capacity cDNA Reverse Transcription kit (Applied Biosystems). Resulting cDNA was analyzed by RT-qPCR. Briefly, 25 ng of cDNA and […] of each primer were mixed with SYBR® GreenER™ PCR Master Mix (Invitrogen). Reactions were performed in 384-well format using an ABI PRISM® 7900HT instrument (Applied Biosystems). Relative mRNA levels were calculated using the comparative CT method normalized to cyclophilin.
Inguinal stroma-vascular fractions were obtained from 30-35-day-old male mice using the following procedure: Inguinal fat tissue was dissected, washed with PBS, minced and digested for 45 min at 37° C. in PBS containing 10 mM CaCl2, 2.4 Uml^−1 dispase 11 (Roche) and 1.5 U ml^−1 collagenaseD (Roche). Digested tissue was filtered through a 100-μm cell strainer and centrifuged at 600 g for 5 min to pellet the stroma-vascular cells. The pellets were then resuspended in adipocyte culture medium (DMEM/F2 (1:1, Invitrogen) plus GlutaMAX, penicillin and streptomycin, and 10% FBS), filtered through a 40-μm cell strainer, centrifuged as above, resuspended in adipocyte culture medium and plated. The stroma-vascular cells were grown to confluence for adipocyte differentiation, which was induced by an adipogenic cocktail containing 1 μM dexamethasone, 5 μg ml^−1 insulin, […] isobutylmethylxanthine (DMI) and 1 μM rosiglitazone in adipocyte culture medium. Two days after induction, cells were maintained in adipocyte culture medium containing 5 μg ml^−1 insulin and 1 μM rosiglitazone. Starting on day 6, cells were maintained in adipocyte culture medium only and treated with various molecules for 2-24 h and harvested on day 8.
LLC cells were maintained in DMEM (Invitrogen) with 10% FBS, and penicillin and streptomycin. For conditioned medium collection, cells were plated at a 1:3 confluence.

primary brown adipocytes = experiment: Thermogenic gene expression (qRT-PCR) in primary brown adipocytes
Procedure: as §1

UCP1 = UCP1 protein levels by western blotting in primary adipocytes
Procedure: Cells were homogenized in a lysis buffer containing 50 mM Tris (pH 7.4), 500 mM NaCl, 1% NP40, 20% glycerol, 5 mM EDTA and 1 mM PMSF, supplemented with protease and phosphatase inhibitor cocktails (Roche). The homogenates were centrifuges at 13,000 rpm for 10 min and the supernatants were used as whole cell lysates. Protein concentration was determined by Bio-Rad Bradford assay and 50 μg of proteins were used in each SDS-PAGE run. PVDF membrane was blotted with UCP1 antibody (Abeam) in TBS containing 0.05% Tween and 5% BSA. For secondary antibody incubation, TBS-T containing 5% milk was used. ECL western blotting substrates from Pierce were used for visualization of the results.
Cells were homogenized in a lysis buffer containing 50 mMTris (pH 7.4), 500 mM NaCl, 1% NP40, 20% glycerol, 5 mM EDTA and 1 mM phenylmethylsulphonyl fluoride (PMSF) supplemented with protease and phosphatase inhibitor cocktails (Roche). The homogenates were centrifuged at 13,000 r.p.m. for 10 min, and the supernatants were used as whole-cell lysates. Protein concentration was determined by Bio-Rad protein assay, and […] protein lysate was separated in each SDS-PAGE lane. The separated proteins were transferred to a polyvinylidene difluoride (PVDF)membrane, which was blotted with antibodies in TBS containing 0.05% Tween (TBS-T) and 5% BSA. For secondary antibody incubation. TBS-T containing 5% milk was used. Enhanced chemiluminescence (ECL) western blotting substrates (Pierce) were used for visualization of the results.

Question: With “PTH (1-34): Synthetic peptide rat PTH(1-34) (Ala32-Phe65; Catalog No. H-5460), purchased from Bachem” as the substance, how does the thermogenic gene expression (primary white adipocytes; 100 ng ml^−1 peptide, 2 h, primary white adipocytes (FIG. 21B)) read?
Answer: stimulated thermogenic gene expression

Question: And the “thermogenic effects (thermogenic gene expression)” value (“thermogenic effects” below) (primary white adipocytes)?
Answer: thermogenic effects

Question: And the “thermogenic effects” value (primary white adipocytes; listed as PTH)?
Answer: powerful inducers of thermogenic gene expression

Question: And the thermogenic gene expression (primary brown adipocytes; 100 ng ml^−1 peptide, 2 h, primary brown adipocytes (FIG. 20D))?
Answer: stimulated thermogenic gene expression

Question: What about the “thermogenic effects” value (primary brown adipocytes; 1 μg/ml, primary brown adipocytes (FIG. 9A)) of the same substance?
Answer: thermogenic effects

Question: And the UCP1 protein levels (UCP1; 100 nM NE, 100 ng ml^−1 PTHrP or PTH, 24 h, primary white and brown adipocytes (FIG. 23A-23B))?
Answer: comparably increased UCP1 protein levels

Question: What about the UCP1 protein levels (UCP1; 24 hour treatment, norepinephrine 100 nM, peptides 100 ng/mL, western blotting (FIG. 8D)) of the same substance?
Answer: significantly increased
